We go through one substance from patent publication US7365099B2, “Animal body fat control” (Wisconsin Alumni Research Foundation, priority 2001, dated 2008).

One experiment deals with 3T3-L1 adipocytes. Put plainly: Glycerol released from 3T3-L1 adipocytes. The experiment is classed as cell-based. To be noted: treated 20–24 hours. As for the experimental part:
Fat reduction by CLA is partly due to inhibition of lipoprotein lipase (LPL) in adipocytes, as has been previously shown using a 3T3-L1 adipocyte cell culture model. Using the same model, the effects on LPL of aspirin and NDGA, as compared to CLA, were tested. 3T3-L1 preadipocytes were cultured as described. Frost, S. C. and M. D. Lane, J. Biol. Chem. 260: 2646–2652(1985). Briefly, 3T3-L1 preadipocytes were grown to confluence at 37° C. in Dulbecco's Modified Eagle's Medium (DMEM) with 10% fetal bovine serum (FBS). At two days post-confluence (designated “day 0”) cell differentiation was induced with a mixture of methylisobutylxanthine (0.5 mM), dexamethasone (0.25 μM), and insulin (1 μg/ml) in DMEM containing 10% FBS. On “day 2” this medium was replaced with DMEM medium containing 10% FBS and insulin only. On “day 4” and thereafter the medium was DMEM plus 10% FBS only; this medium was subsequently replaced with fresh medium at 2 day intervals.
Cells were treated with other known lipoxygenase inhibitors. Cells were treated with testing compounds for 20–24 hours at day 6 or 7 post differentiation. Based on the ED50 of these inhibitors, various doses were first tested. In FIG. 5A, the concentration of SHA, CLA, ETYA, indomethacin, NDGA and AA861 were 1×10^−3 M, 1×10^−4 M, 1×10^−4 M, 1×10^−4 M, 1×10^−5 M and 1×10^−6 M, respectively. In FIG. 5B, the cells were treated with the test compounds at 1×10^−4 M. CLA was complexed with albumin and others were dissolved in ethanol. All dishes including control contained the same concentration of albumin (1×10^−4 M) and ethanol (final concentration of 0.1%). Numbers are mean±S.E. (in FIG. 5A, n=7–8, collected from 2 independent experiments, in FIG. 5B, n=11–12, collected from 3 independent experiments). […] Indomethacin blocks both cyclooxygenase and lipoxygenase, the two primary enzymes in the arachidonic acid metabolic cascade. […] When 100 μM of these were tested, the potency was AA861>NDGA>ETYA>Indomethacin>CLA. […]

A further experiment relates to ICR mice. Nature of the experiment: Body composition analysis of mice on NDGA/CLA diets (Experiment 2). The class given is in vivo. The following applies: male ICR mice. Here is the method: For body composition analyses, animals were sacrificed, gut contents were removed (to obtain empty carcass weight, “ECW”), and the carcasses frozen at −20° C. Frozen carcasses were chopped, and freeze dried to determine water content. Each dried carcass was ground to give a homogeneous sample before further analysis. Total nitrogen was analyzed by the Kjeldahl method. Helrich, K., Official Methods of Analysis, 15th ed.: 935–937(1990). Carcass fat content was measured by extraction with diethyl ether overnight using a Soxhlet apparatus. Total ash content was determined by incineration (500–600° C., overnight).
After a 5 day adaptation period, four-week-old weanling male ICR mice (Harlan Sprague-Dawley) were randomly separated into groups that were fed one of the treatment diets for 4 weeks. Mice were fed either a control diet (as in Experiment 1), or a diet supplemented with CLA (0.1%), NDGA (0.1% or 0.005%), or CLA (0.1%) with NDGA (0.1% or 0.005%). The lower level of NDGA was chosen based on the level used as an antioxidant in the food industry. Supplemental NDGA was added to diets at the expense of sugar. Diet was stored at −20° C. until use. Mice were housed individually in a windowless room with a 12-h light-dark cycle in strict accordance to guidelines established by the Research Animal Resources Center of University of Wisconsin-Madison. Diet and water, available ad libitum, were freshly provided three times per week.

The nature of experiment [1]: Body weights of mice on aspirin/CLA diets (Experiment 1, FIG. 1). The experiment is classed as in vivo. The following applies: female ICR mice, 0.5% CLA and/or 0.03% aspirin. The source says: After a 5 day adaptation period, four-week-old weanling female ICR mice (Harlan Sprague-Dawley) were randomly separated into groups that were fed one of the treatment diets for 4 weeks. Mice were fed either a control diet, or a diet supplemented with aspirin alone (0.03%), 0.5% CLA alone, or CLA with additional aspirin (0.006% [“Asp1”] or 0.03% [“Asp2”]). The control diet was semi-purified TD94060 diet, 99% basal mix from Harlan Teklad, Madison, Wis. that contained (ingredient, g/kg): sucrose, 476; casein, “vitamin-free” test, 210; corn starch, 150; DL-methionine, 3; corn oil 55; cellulose, 50; mineral mix, AIN-76, 35; vitamin mix, AIV-76A, 10; calcium carbonate, 4; choline bitartrate, 2; and ethoxyquin, 0.1. The aspirin doses reflect an average human dose (0.03%) or a recommended dose for preventing cardiovascular disease (0.006%). Supplemental CLA was added to diets at the expense of corn oil. Diet was stored at −20° C. until use. Mice were housed individually in a windowless room with a 12-h light-dark cycle in strict accordance to guidelines established by the Research Animal Resources Center of University of Wisconsin-Madison. Diet and water, available ad libitum, were freshly provided three times per week.

Setting [2] is: 4 weeks diet with 0.1% CLA and/or 0.1% NDGA, mean±S.E., N=5–6.

On to Conjugated linoleic acid [CLA], for which the “glycerol released from the cell (in words)” value with 3T3-L1 adipocytes is given as “increased the glycerol released”. For the same substance, in the experiment on ICR mice (setting [2]), the “% Ash” value was determined as 3.49 ± 0.07% and the “ECW (empty carcass weight)” value came out at 32.0 ± 0.9 g. Also, in the experiment on ICR mice (4 weeks, 0.1% CLA and/or 0.1% NDGA), the “body composition versus control (in words)” value was “reduced fat (p<0.197) and increased water and protein”. In experiment [1], the “body weights, weeks 0 through 3 (in words)” value is given as “no difference in body weights”.
